Series [1] relates to Trichophyton asteroides 429. In words: MIC by standard serial dilution method (fungi). Type of series: cell-based. Conditions: dexylosylbenanomicin B as hydrochloride.
The subject of another series is Salmonella typhi T-63. In words: MIC by standard serial dilution method (bacteria). To be noted: Salmonella enterica.
Series [2] in a line: Distinction between the basic, acidic and neutral natures of substance. Type of series: physicochemical.
The test system of series [3] is Pseudomonas aeruginosa A3. In words: MIC by standard serial dilution method (bacteria).
The subject of a further series is Candida albicans 3147. Kind of series: MIC by standard serial dilution method (fungi). Conditions: dexylosylbenanomicin B as hydrochloride. It is filed as cell-based.
Another series has as its system Xanthomonas oryzae. In words: microbe, parasite or virus in culture. It is filed as cell-based.
Series [4] deals with Trichophyton mentagrophytes (883). Kind of series: MIC by standard serial dilution method (fungi). It is filed as cell-based. Conditions: dexylosylbenanomicin B as hydrochloride.
The subject of the next series is Aspergillus niger. Kind of series: MIC by standard serial dilution method (fungi). It is filed as cell-based. To be noted: dexylosylbenanomicin B as hydrochloride.
A further series can be described thus: in vivo. To be noted: mouse, iv.
The test system of a further series is Pellicularia sasakii. Kind of series: MIC by standard serial dilution method (fungi). Type of series: cell-based. Conditions: dexylosylbenanomicin B as hydrochloride.
In series [5] the test system is Shigella dysenteriae JS11910. Kind of series: MIC by standard serial dilution method (bacteria).
Series [6] concerns Staphylococcus aureus FDA209P. In words: MIC by standard serial dilution method (bacteria).
Another series has as its system Candida albicans. Kind of series: therapeutic effect on experimental Candida infection in mice. To be noted: 3 times (0, 6, 24 h).
Another series concerns Candida Yu-1200. In words: MIC by standard serial dilution method (fungi). It is filed as cell-based. Conditions: YU1200, dexylosylbenanomicin B as hydrochloride.
In series [7] the test system is Cryptococcus neoformans F-10. Kind of series: MIC by standard serial dilution method (fungi). Type of series: cell-based.
Series [8] relates to Saccharomyces cerevisiae F-7. Kind of series: MIC by standard serial dilution method (fungi). It is filed as cell-based. To be noted: F7, dexylosylbenanomicin B as hydrochloride.
The subject of a further series is Xanthomonas citri. In words: MIC by standard serial dilution method. It is filed as cell-based.
Another series relates to Proteus vulgaris OX19. In words: MIC by standard serial dilution method (bacteria).
For a further series, the system named is Escherichia coli NIHJ. In words: MIC by standard serial dilution method (bacteria).
Another series relates to Pyricularia oryzae. In words: microbe, parasite or virus in culture. Type of series: cell-based.
In the next series the test system is Escherichia coli K-12. Kind of series: MIC by standard serial dilution method (bacteria). To be noted: K12.
The test system of series [9] is Klebsiella pneumoniae PCI602. Kind of series: MIC by standard serial dilution method (bacteria).
Another series deals with Candida krusei F-5. In words: MIC by standard serial dilution method (fungi). Type of series: cell-based. To be noted: Pichia kudriavzevii, F5, dexylosylbenanomicin B as hydrochloride.
Series [10] has as its system Candida pseudotropicalis F-2. Kind of series: MIC by standard serial dilution method (fungi). Type of series: cell-based. To be noted: Kluyveromyces marxianus, F2.
The test system of another series is Micrococcus luteus FDA16. In words: MIC by standard serial dilution method (bacteria).
Series [11] has as its system Staphylococcus aureus Smith. Kind of series: MIC by standard serial dilution method (bacteria).
The next series concerns Bacillus subtilis PCI219. Kind of series: MIC by standard serial dilution method (bacteria).
The subject of the next series is various kinds of fungi. In words: antifungal activity, summary of Table 2. It is filed as cell-based. To be noted: as revealed from Table 2. The text has this: 4. Antibacterial and antifungal activities of benanomicin A, benanomicin B and dexylosylbenanomicn B (as the hydrochloride) are described below.
Another series concerns Cochliobolus miyabeanus. In words: MIC by standard serial dilution method (fungi). Type of series: cell-based. Conditions: Bipolaris oryzae.
Series [12] relates to Corynebacterium bovis 1810. In words: MIC by standard serial dilution method (bacteria).
Another series deals with Jcl:ICR-strain mice. Conditions: mouse, in vivo, iv, 600 mg/kg.
A further series has as its system Candida tropicalis F-1. Kind of series: MIC by standard serial dilution method (fungi). To be noted: F1, dexylosylbenanomicin B as hydrochloride. It is filed as cell-based.
Series [13] has as its system Mycobacterium smegmatis ATCC607. In words: MIC by standard serial dilution method (bacteria). Conditions: Mycolicibacterium smegmatis.
[14] abbreviates: Candida pseudotropicalis F-2, dexylosylbenanomicin B as hydrochloride, read-out: MIC.

Values after ≈ are worked out from the molar mass of the structure shown. Counter-ions that a name gives are not always drawn. Like-named read-outs stand apart in the source and are kept apart here.

On to `COc1cc(O)c2c(c1)C(=O)c1c(cc3c(c1O)-c1c(cc(C)c(C(=O)N[C@H](C)C(=O)O)c1O)C(O[C@@H]1O[C@H](C)[C@H](O)[C@H](O[C@@H]4OC[C@@H](O)[C@H](O)[C@H]4O)[C@H]1O)C3O)C2=O` (stereo partly shown) [Benanomicin A], for which the MIC was 50 µg/mL (≈ 60.4 µM) in series [1]; over 100 µg/mL against Salmonella typhi T-63; over 50 µg/mL in series [3]; 25 µg/mL (≈ 30.2 µM) with Candida albicans 3147; over 100 µg/mL in the series on Xanthomonas oryzae; 50 µg/mL (≈ 60.4 µM) in series [4]. In addition, the MIC in the series with Aspergillus niger was 50 µg/mL (≈ 60.4 µM); against Pellicularia sasakii, 25 µg/mL (≈ 30.2 µM); in [5], over 50 µg/mL; in [6], 100 µg/mL (≈ 121 µM); with Candida Yu-1200, 12.5 µg/mL (≈ 15.1 µM); in series [7] (F10, read-out: MIC) it was 3.12 µg/mL (≈ 3.77 µM). The MIC was 6.25 µg/mL (≈ 7.55 µM) in series [8]; over 100 µg/mL with Xanthomonas citri; over 100 µg/mL against Proteus vulgaris OX19; over 100 µg/mL against Escherichia coli NIHJ; 25 µg/mL (≈ 30.2 µM) in the series with Pyricularia oryzae; over 100 µg/mL in the series on Escherichia coli K-12. Moreover, the MIC in series [9] is over 100 µg/mL; in the series with Candida krusei F-5 it was 6.25 µg/mL (≈ 7.55 µM); in series [10] (setting [14]), 6.25 µg/mL (≈ 7.55 µM); against Micrococcus luteus FDA16 it was 12.5 µg/mL (≈ 15.1 µM); in [11] it was over 100 µg/mL; in the series on Bacillus subtilis PCI219 it was over 100 µg/mL. In addition, the MIC against Cochliobolus miyabeanus is over 100 µg/mL; in [12], 12.5 µg/mL (≈ 15.1 µM); with Candida tropicalis F-1, 25 µg/mL (≈ 30.2 µM); in series [13], over 100 µg/mL. Also, in [2], the “Distinction between the basic, acidic and neutral natures of substance” value (from here on “Distinction between the basic”) is reported as “Acidic substance”. The compound also yielded an MTD in the series “in vivo” of 600 mg/kg. In addition, the “Number of surviving mice” value with Candida albicans (0.2 mg/mouse, subcutaneous) is recorded as 0/5; with Candida albicans (0.3 mg/mouse, subcutaneous), 2/5; with Candida albicans (0.4 mg/mouse, subcutaneous), 1/5; in the series on Candida albicans (0.8 mg/mouse, subcutaneous), 5/5; in the series on Candida albicans (1.5 mg/mouse, oral), 0/5; with Candida albicans (3.0 mg/mouse, oral), 0/5. Also, the “Number of surviving mice” value in the series on Candida albicans (6.0 mg/mouse, oral) is 3/5; in the series on Candida albicans (12.0 mg/mouse, oral) it was 3/5. The “Percent of the number of surviving mice against the tested mice” value in the series with Candida albicans (0.2 mg/mouse, subcutaneous) is on record as 0%; in the series with Candida albicans (0.3 mg/mouse, subcutaneous) it was 40%; with Candida albicans (0.4 mg/mouse, subcutaneous), 20%; in the series with Candida albicans (0.8 mg/mouse, subcutaneous) it was 100%; in the series on Candida albicans (1.5 mg/mouse, oral), 0%; in the series with Candida albicans (3.0 mg/mouse, oral), 0%. The “Percent of the number of surviving mice against the tested mice” value was 60% in the series with Candida albicans (6.0 mg/mouse, oral) and 60% with Candida albicans (12.0 mg/mouse, oral). For the same compound, the Solubility result in the series “Solubility” (acetone) is “Only sparingly soluble”; in “Solubility” (alkaline water) it was “soluble”; in the series “Solubility” (chloroform) it was “Only sparingly soluble”; in “Solubility” (dimethylformamide) it was “soluble”; in the series “Solubility” (dimethylsulfoxide) it was “soluble”; in “Solubility” (ethyl acetate), “Only sparingly soluble”. Besides, the Solubility entry is “Only sparingly soluble” in the series “Solubility” (methanol) and “insoluble” in the series “Solubility” (water). Besides, in the series with various kinds of fungi, the “antifungal activities against various kinds of fungi” value (“antifungal activities” below) is “substantial antifungal activities”. Besides, the mice killed entry in the series on Jcl:ICR-strain mice was “none of the mice was killed”.
As for `COc1cc(O)c2c(c1)C(=O)c1c(cc3c(c1O)-c1c(cc(C)c(C(=O)N[C@H](C)C(=O)O)c1O)[C@H](O[C@@H]1O[C@H](C)[C@H](N)[C@H](O[C@@H]4OC[C@@H](O)[C@H](O)[C@H]4O)[C@H]1O)[C@H]3O)C2=O` [Benanomicin B hydrochloride], the “Distinction between the basic” value in series [2] is reported as “Amphoteric substance”. The Solubility entry in “Solubility” (acetone) is reported as “Only sparingly soluble”; in “Solubility” (chloroform), “Only sparingly soluble”; in the series “Solubility” (dimethylformamide), “soluble”; in the series “Solubility” (dimethylsulfoxide), “soluble”; in the series “Solubility” (ethyl acetate) it was “Only sparingly soluble”; in “Solubility” (methanol) it was “soluble”. Moreover, the Solubility result in “Solubility” (water) was “soluble”.
As to `COc1cc(O)c2c(c1)C(=O)c1c(cc3c(c1O)-c1c(cc(C)c(C(=O)N[C@H](C)C(=O)O)c1O)C(O[C@@H]1O[C@H](C)[C@H](N)[C@H](O[C@@H]4OC[C@@H](O)[C@H](O)[C@H]4O)[C@H]1O)C3O)C2=O` (stereo partly shown) [Benanomicin B], the MIC in series [1] is 25 µg/mL (≈ 30.2 µM); in the series on Salmonella typhi T-63 it was over 100 µg/mL; in series [3] it was over 100 µg/mL; against Candida albicans 3147, 25 µg/mL (≈ 30.2 µM); against Xanthomonas oryzae, over 100 µg/mL; in series [4], 25 µg/mL (≈ 30.2 µM). The MIC against Aspergillus niger is over 100 µg/mL; against Pellicularia sasakii it was 50 µg/mL (≈ 60.5 µM); in series [5], over 100 µg/mL; in [6], over 100 µg/mL; in the series with Candida Yu-1200, 12.5 µg/mL (≈ 15.1 µM); in [7] (F10, read-out: MIC), 1.56 µg/mL (≈ 1.89 µM). The MIC in [8] is 12.5 µg/mL (≈ 15.1 µM); in the series with Xanthomonas citri it was over 100 µg/mL; against Proteus vulgaris OX19 it was over 100 µg/mL; with Escherichia coli NIHJ it was over 100 µg/mL; in the series with Pyricularia oryzae, 50 µg/mL (≈ 60.5 µM); with Escherichia coli K-12 it was over 100 µg/mL. Moreover, the MIC was over 100 µg/mL in series [9]; 6.25 µg/mL (≈ 7.56 µM) in the series on Candida krusei F-5; 6.25 µg/mL (≈ 7.56 µM) in series [10] (setting [14]); 3.12 µg/mL (≈ 3.77 µM) with Micrococcus luteus FDA16; over 100 µg/mL in series [11]; over 100 µg/mL against Bacillus subtilis PCI219. Further, the MIC is over 100 µg/mL with Cochliobolus miyabeanus, 3.12 µg/mL (≈ 3.77 µM) in series [12], over 100 µg/mL in the series on Candida tropicalis F-1 and over 100 µg/mL in series [13]. In “in vivo”, the MTD is 100 mg/kg. Moreover, the “antifungal activities” value with various kinds of fungi is recorded as “substantial antifungal activities”.
For the compound `COc1cc(O)c2c(c1)C(=O)c1c(cc3c(c1O)-c1c(cc(C)c(C(=O)N[C@H](C)C(=O)O)c1O)C(O[C@@H]1O[C@H](C)[C@H](N)[C@H](O)[C@H]1O)C3O)C2=O` (stereo partly shown) [Dexylosylbenanomicin B hydrochloride], in series [2], the “Distinction between the basic” value is given as “Amphoteric substance”.
As to `COc1cc(O)c2c(c1)C(=O)c1c(cc3c(c1O)-c1c(cc(C)c(C(=O)N[C@H](C)C(=O)O)c1O)C(O[C@@H]1O[C@H](C)[C@H](N)[C@H](O)[C@H]1O)C3O)C2=O` (stereo partly shown) [Dexylosylbenanomicin B], the MIC in [1] came out at 50 µg/mL (≈ 72 µM); against Candida albicans 3147, 6.25 µg/mL (≈ 9 µM); in the series on Xanthomonas oryzae, 100 µg/mL (≈ 144 µM); in series [4], 50 µg/mL (≈ 72 µM); in the series on Aspergillus niger it was 25 µg/mL (≈ 36 µM); in the series on Pellicularia sasakii it was 25 µg/mL (≈ 36 µM). In addition, the MIC in the series on Candida Yu-1200 was 6.25 µg/mL (≈ 9 µM); in [7] (F10) it was 3.13 µg/mL (≈ 4.51 µM); in series [8], 6.25 µg/mL (≈ 9 µM); with Xanthomonas citri, 100 µg/mL (≈ 144 µM); against Pyricularia oryzae, 25 µg/mL (≈ 36 µM); with Candida krusei F-5 it was 12.5 µg/mL (≈ 18 µM). Besides, the MIC amounted to 3.13 µg/mL (≈ 4.51 µM) in series [10], 50 µg/mL (≈ 72 µM) with Cochliobolus miyabeanus and 6.25 µg/mL (≈ 9 µM) with Candida tropicalis F-1. Moreover, the MTD in the series “in vivo” is 100 mg/kg. In the series with various kinds of fungi, the “antifungal activities” value is recorded as “substantial antifungal activities”.
